In ChEMBL document CHEMBL5465560, “Selectivity Literature for EUbOPEN Chemogenomic Library” (2024):
One block for each compound: values may come before it.

Experiments:
[1] = molecular target: Leukotriene B4 receptor 1 (Homo sapiens) (UniProt Q15722); experiment: Selectivity interaction (Eurofins CEREP Diversity Profile (receptors and ion channels)) EUB0000279b LTB4R; settings: at 10 µM
[2] = molecular target: D(1A) dopamine receptor (Homo sapiens, UniProt P21728); experiment: Selectivity interaction (Dopamine D1 - cAMP agonist mode ) EUB0000877a DRD1
D(1A) dopamine receptor, sequence (P21728 whole entry): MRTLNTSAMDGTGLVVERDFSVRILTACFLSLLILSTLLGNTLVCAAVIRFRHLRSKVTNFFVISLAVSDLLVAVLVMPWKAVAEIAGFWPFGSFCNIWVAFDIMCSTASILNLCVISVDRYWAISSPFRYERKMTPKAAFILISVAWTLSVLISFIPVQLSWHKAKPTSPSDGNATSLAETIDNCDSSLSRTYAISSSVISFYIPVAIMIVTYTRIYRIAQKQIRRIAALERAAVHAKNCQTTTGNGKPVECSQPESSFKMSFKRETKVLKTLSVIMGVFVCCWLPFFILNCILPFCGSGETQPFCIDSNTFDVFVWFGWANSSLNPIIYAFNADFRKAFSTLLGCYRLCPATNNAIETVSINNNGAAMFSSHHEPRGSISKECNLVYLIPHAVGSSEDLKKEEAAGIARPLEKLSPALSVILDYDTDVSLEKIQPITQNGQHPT

[3] = molecular target: Adenosine receptor A3 (Homo sapiens, UniProt P0DMS8); experiment: Selectivity interaction (Adenosine 3 receptor binding assay, human recombinant ) EUB0000877a ADORA3
[4] = molecular target: AP2-associated protein kinase 1 (Homo sapiens, UniProt Q2M2I8); experiment: Selectivity interaction (KinomeScan (DiscoverX)) EUB0000607a AAK1; settings: at 10 µM
AP2-associated protein kinase 1, sequence (Q2M2I8 whole entry, looked up): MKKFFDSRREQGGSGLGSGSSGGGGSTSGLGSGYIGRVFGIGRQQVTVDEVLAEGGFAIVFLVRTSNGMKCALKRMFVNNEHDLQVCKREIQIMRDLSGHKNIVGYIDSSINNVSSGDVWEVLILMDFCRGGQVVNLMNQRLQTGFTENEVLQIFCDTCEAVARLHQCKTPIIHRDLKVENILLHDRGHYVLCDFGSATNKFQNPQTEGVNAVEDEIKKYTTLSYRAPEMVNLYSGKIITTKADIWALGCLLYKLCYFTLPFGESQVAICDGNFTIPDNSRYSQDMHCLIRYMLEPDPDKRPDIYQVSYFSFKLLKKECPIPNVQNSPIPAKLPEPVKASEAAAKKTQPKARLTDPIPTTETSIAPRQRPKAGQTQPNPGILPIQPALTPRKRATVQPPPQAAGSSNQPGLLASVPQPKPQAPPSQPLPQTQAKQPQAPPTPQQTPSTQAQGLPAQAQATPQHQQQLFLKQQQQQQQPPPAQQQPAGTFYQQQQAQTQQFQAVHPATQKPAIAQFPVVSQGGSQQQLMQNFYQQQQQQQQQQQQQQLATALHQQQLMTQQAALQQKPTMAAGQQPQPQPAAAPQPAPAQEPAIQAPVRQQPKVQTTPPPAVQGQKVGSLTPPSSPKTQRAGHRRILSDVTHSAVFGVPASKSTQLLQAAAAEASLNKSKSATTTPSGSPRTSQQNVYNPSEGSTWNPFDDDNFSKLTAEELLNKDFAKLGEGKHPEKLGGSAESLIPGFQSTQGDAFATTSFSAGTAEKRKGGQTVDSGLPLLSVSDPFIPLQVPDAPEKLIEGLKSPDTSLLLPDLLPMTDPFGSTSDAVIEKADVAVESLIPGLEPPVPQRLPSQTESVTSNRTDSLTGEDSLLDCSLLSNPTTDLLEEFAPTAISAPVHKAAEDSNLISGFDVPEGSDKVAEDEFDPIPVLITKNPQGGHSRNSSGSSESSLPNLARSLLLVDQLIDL

[5] = molecular target: Dual specificity testis-specific protein kinase 1 (Homo sapiens) (UniProt Q15569); experiment: Selectivity interaction (KinomeScan (DiscoverX)) EUB0000607a TESK1; settings: at 10 µM
Dual specificity testis-specific protein kinase 1 (Homo sapiens), sequence (Q15569 whole entry, looked up): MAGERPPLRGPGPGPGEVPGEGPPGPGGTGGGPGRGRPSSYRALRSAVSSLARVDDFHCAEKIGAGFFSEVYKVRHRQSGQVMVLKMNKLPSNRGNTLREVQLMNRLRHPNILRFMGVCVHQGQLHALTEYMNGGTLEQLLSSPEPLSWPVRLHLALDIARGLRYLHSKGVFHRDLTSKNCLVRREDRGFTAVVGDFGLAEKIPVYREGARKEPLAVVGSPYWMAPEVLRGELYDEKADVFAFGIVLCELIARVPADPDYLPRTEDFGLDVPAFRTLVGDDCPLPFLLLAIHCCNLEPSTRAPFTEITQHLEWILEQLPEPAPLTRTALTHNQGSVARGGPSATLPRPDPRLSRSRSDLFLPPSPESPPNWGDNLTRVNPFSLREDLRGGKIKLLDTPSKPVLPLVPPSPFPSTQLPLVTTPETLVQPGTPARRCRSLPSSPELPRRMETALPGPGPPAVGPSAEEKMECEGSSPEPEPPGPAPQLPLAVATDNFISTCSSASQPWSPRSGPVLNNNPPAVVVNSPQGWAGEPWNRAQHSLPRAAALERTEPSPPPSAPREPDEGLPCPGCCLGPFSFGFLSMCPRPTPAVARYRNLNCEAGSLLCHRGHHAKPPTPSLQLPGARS

[6] = molecular target: Ephrin type-A receptor 5 (Homo sapiens) (UniProt P54756); experiment: Selectivity interaction (SelectScreen profiling (Invitrogen)) EUB0000607a EPHA5; settings: at 2 µM
[7] = molecular target: Phosphorylase b kinase gamma catalytic chain, skeletal muscle/heart isoform (Homo sapiens) (UniProt Q16816); experiment: Selectivity interaction (SelectScreen profiling (Invitrogen)) EUB0000607a PHKG1; settings: at 2 µM
[8] = molecular target: High affinity nerve growth factor receptor (Homo sapiens, UniProt P04629); settings: at 10 µM
[9] = molecular target: 5'-AMP-activated protein kinase catalytic subunit alpha-2 (Homo sapiens) (UniProt P54646); experiment: Selectivity interaction (ActivX KiNativ screen (kinase selectivity in THP-1 cell lysates)) EUB0000639a PRKAA2; format: subcellular; settings: lysate
5'-AMP-activated protein kinase catalytic subunit alpha-2 (Homo sapiens), sequence (P54646 whole entry, looked up): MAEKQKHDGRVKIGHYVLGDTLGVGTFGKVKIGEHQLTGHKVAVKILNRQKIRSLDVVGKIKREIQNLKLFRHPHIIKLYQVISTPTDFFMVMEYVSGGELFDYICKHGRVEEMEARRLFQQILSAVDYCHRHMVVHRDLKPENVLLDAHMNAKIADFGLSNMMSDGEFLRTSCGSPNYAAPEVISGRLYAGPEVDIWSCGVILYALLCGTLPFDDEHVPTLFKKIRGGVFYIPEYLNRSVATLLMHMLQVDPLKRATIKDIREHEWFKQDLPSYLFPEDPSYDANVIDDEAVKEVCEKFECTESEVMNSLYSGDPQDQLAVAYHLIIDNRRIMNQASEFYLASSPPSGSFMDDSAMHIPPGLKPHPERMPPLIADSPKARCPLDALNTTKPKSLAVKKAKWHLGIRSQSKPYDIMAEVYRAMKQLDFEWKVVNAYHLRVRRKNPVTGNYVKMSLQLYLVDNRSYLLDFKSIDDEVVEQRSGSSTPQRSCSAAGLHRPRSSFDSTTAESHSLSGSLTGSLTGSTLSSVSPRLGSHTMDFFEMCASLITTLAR

[10] = molecular target: T1, Mitogen-activated protein kinase 13 (Homo sapiens) (UniProt O15264); experiment: Selectivity interaction (KinomeScan (DiscoverX)) EUB0000595a MAPK13; settings: at 10 µM
T1 sequence (whole entry): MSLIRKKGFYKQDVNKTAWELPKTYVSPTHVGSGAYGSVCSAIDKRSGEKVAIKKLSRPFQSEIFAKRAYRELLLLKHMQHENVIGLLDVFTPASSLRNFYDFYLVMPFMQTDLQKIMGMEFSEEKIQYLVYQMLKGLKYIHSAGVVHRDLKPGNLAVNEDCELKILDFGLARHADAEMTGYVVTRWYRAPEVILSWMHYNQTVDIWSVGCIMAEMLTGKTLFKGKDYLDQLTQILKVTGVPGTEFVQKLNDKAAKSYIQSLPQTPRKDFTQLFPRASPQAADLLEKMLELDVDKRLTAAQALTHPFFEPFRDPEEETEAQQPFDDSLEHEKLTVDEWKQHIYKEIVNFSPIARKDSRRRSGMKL

[11] = molecular target: Casein kinase I isoform delta (Homo sapiens, UniProt P48730); experiment: Selectivity interaction (Kinase panel (DSF assay)) EUB0001558a CSNK1D
Casein kinase I isoform delta, sequence (P48730 whole entry, looked up, canonical isoform): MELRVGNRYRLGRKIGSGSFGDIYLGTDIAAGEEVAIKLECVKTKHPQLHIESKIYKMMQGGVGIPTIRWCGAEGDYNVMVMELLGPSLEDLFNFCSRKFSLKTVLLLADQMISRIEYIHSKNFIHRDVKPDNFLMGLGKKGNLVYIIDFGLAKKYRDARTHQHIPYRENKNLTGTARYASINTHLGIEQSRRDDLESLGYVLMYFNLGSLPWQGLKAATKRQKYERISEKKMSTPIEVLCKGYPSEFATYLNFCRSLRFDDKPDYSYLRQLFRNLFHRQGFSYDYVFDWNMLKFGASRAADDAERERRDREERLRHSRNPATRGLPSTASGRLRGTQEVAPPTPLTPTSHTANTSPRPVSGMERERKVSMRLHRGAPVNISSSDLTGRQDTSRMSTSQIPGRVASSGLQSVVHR

[12] = molecular target: T2, Peripheral plasma membrane protein CASK (Homo sapiens) (UniProt O14936); experiment: Selectivity interaction (KinomeScan (DiscoverX)) EUB0000655a CASK; settings: at 10 µM
T2 sequence (whole entry): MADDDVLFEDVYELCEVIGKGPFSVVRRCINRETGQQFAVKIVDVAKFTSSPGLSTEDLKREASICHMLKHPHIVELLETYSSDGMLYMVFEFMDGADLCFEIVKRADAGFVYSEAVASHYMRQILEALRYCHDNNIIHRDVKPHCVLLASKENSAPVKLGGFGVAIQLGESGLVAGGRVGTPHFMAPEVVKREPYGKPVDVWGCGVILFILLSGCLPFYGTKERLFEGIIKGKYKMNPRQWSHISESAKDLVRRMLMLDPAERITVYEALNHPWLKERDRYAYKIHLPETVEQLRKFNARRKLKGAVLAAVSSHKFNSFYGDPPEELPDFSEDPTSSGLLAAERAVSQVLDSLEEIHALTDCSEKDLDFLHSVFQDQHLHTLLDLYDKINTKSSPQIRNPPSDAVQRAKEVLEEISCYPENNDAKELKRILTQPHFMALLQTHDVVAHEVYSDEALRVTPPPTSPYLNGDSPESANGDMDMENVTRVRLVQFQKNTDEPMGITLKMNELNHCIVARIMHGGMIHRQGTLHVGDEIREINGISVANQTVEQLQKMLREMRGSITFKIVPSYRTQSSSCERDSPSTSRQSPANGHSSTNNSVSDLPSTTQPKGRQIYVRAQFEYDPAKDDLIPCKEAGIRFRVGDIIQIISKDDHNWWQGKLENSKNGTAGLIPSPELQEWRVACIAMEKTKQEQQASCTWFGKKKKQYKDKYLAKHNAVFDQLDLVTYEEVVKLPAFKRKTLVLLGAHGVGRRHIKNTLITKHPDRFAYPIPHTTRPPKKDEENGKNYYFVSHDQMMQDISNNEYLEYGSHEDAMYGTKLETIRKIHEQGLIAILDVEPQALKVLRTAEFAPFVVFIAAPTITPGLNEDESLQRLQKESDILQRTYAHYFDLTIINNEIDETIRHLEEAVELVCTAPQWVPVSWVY

[13] = molecular target: T3, 5-hydroxytryptamine receptor 3A (Homo sapiens) (UniProt P46098); experiment: Selectivity interaction (GPCR panel (PDSP screen)) EUB0001079a HTR3A; settings: at 10 µM
T3 sequence (whole entry): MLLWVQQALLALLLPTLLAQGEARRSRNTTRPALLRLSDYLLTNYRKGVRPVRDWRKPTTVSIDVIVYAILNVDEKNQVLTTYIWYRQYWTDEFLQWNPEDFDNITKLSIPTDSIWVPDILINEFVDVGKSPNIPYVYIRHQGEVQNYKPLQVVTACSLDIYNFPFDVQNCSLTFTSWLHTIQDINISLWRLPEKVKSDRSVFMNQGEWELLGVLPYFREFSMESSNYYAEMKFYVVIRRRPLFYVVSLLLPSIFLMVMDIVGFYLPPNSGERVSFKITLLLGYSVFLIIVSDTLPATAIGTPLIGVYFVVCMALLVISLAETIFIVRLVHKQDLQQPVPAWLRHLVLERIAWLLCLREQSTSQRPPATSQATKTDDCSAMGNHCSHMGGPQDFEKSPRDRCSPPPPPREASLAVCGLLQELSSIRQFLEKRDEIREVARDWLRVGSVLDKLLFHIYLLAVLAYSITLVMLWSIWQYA

[14] = molecular target: LIM domain kinase 2 (Homo sapiens) (UniProt P53671); experiment: Selectivity interaction (KinomeScan (DiscoverX)) EUB0000229b LIMK2; settings: at 10 µM
[15] = molecular target: Mitogen-activated protein kinase kinase kinase 4 (Homo sapiens) (UniProt Q9Y6R4); experiment: Selectivity interaction (KinomeScan (DiscoverX)) EUB0001619a MAP3K4; settings: at 1 µM
Mitogen-activated protein kinase kinase kinase 4 (Homo sapiens), sequence (Q9Y6R4 whole entry): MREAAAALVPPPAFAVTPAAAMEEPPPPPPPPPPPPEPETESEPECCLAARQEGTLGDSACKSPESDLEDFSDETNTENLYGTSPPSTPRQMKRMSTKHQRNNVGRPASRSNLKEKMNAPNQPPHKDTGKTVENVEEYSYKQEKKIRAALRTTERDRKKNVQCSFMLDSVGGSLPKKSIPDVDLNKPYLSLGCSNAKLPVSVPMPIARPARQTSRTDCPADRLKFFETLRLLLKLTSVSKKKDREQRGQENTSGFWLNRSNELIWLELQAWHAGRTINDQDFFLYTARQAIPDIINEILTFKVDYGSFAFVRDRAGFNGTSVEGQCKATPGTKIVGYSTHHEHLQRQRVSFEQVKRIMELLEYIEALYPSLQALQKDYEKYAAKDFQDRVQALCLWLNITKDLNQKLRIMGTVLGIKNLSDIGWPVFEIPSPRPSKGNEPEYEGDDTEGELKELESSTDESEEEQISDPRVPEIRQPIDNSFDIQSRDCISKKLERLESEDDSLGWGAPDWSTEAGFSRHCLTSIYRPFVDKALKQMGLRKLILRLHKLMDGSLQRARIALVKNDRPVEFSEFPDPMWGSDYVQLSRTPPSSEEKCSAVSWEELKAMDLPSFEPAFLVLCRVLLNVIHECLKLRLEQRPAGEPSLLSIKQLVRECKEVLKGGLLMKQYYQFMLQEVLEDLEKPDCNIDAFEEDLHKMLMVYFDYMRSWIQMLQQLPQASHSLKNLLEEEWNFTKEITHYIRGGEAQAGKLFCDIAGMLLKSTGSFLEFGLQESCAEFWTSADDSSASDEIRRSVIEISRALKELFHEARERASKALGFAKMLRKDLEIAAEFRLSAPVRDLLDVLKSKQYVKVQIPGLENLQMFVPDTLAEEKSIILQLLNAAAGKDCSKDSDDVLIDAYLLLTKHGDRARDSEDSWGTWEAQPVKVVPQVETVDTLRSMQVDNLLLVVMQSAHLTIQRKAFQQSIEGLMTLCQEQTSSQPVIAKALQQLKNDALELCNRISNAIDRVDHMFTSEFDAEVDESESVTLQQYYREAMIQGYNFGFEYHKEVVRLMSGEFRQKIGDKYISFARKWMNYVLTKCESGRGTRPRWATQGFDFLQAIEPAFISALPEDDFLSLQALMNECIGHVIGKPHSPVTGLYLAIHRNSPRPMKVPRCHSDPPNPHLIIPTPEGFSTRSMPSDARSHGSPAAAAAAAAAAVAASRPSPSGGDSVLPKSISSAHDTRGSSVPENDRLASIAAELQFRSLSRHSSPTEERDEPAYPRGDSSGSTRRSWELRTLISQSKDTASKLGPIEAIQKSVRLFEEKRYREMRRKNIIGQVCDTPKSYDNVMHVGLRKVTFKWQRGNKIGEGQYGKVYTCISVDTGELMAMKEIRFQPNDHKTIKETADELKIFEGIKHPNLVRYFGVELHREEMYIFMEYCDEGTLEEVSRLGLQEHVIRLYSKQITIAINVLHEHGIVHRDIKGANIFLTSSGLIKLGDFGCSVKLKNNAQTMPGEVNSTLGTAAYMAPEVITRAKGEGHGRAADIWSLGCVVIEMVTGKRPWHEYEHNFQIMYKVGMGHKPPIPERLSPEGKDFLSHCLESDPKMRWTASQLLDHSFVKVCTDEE

Leukotriene B4 receptor 1 (Homo sapiens), sequence (Q15722 whole entry): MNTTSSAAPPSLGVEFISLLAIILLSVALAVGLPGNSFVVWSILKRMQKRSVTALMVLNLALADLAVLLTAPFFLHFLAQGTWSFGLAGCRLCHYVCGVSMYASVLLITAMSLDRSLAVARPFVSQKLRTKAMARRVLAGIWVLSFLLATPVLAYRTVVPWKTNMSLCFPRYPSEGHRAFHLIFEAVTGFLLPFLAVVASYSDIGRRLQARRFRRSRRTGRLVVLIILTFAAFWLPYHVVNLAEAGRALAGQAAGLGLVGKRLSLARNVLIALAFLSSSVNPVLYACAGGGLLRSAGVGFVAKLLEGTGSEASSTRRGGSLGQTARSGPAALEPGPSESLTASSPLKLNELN

- % of control [1]: 96%
Structure (SMILES): CC(=O)c1cc(-c2ccccc2OCC2CC2)c2ncccn12

- IC50 [2]: > 30 µM
- IC50 [3]: > 30 µM
Structure (SMILES): CCC(=O)N1CC[C@H](Nc2ncnc3c2CN(c2cnc(OC)c(C(F)(F)F)c2)CC3)C1 [LENIOLISIB]

Structure (SMILES): CNC(=O)Nc1ccc(-c2nc(N3CC4CCC(C3)O4)c3cnn(C4CCC5(CC4)OCCO5)c3n2)cc1
- % of control [4]: 100%
- % of control [5]: 80%
- % of inhibition [6]: 2%
- % of inhibition [7]: 7%

- % of control [8]: 100%
Structure (SMILES): CCN(CC)CCCCNc1ncc2cc(-c3cc(OC)cc(OC)c3)c(NC(=O)NC(C)(C)C)nc2n1

- % of inhibition ([9]; at 0.01 µM): 16%
- % of inhibition ([9]; at 0.04 µM): 21.7%
- % of inhibition ([9]; at 0.2 µM): 11.2%
- % of inhibition ([9]; at 1 µM): 11.8%
- % of inhibition ([9]; at 5 µM): 28.8%
Structure (SMILES): CC[C@@H]1[C@H](F)C(=O)N[C@@H]1COc1nccc2cc(C(N)=O)c(OC)cc12 [ZIMLOVISERTIB]

Structure (SMILES): COCC(=O)NC/C=C/c1ccc2ncnc(Nc3ccc(Oc4ccc(C)nc4)c(C)c3)c2c1 [CP-724714]
- % of control [10]: 100%

Structure (SMILES): CC(C)(O)[C@H](F)CN1Cc2cc(NC(=O)c3cnn4cccnc34)c(N3CCOCC3)cc2C1=O
- dTM [11]: 1.9 K

Structure (SMILES): CN(C)CCOc1ccc(-c2nc(-c3ccncc3)c(-c3ccc4c(c3)CC/C4=N\O)[nH]2)cc1
- % of control [12]: 82%

Structure (SMILES): Nc1cnc(N2CCc3cc(S(=O)(=O)Nc4c(F)cc(Cl)cc4F)cc(N4CCCC4=O)c32)nc1 [TP-020n]
- % of inhibition [13]: 0.32%

Structure (SMILES): COc1cc(N(C)c2ccnc3ccc(C(F)(F)F)cc23)cc(OC)c1OC
- % binding [14]: 93%

Structure (SMILES): N#Cc1cccc(-c2c[nH]c3ncnc(N4CCOCC4)c23)c1
- % of control [15]: 100%
